Test results: US20240261268A1, “METHODS OF SLOWING AN INCREASE IN BRAIN VENTRICULAR VOLUME” (VANDA PHARMACEUTICALS INC., priority 2022, published 2024)

Key:
[1] = other S1P receptor modulators, given for comparison; cited from earlier work
[2] = tested on: adult subjects with relapsing MS; test: 12-lead ECG heart rate and first-dose monitoring on Day 1; assay type: in vivo, human
Method: The incidence of treatment-emergent heart rate and rhythm (including hypotension) AESIs on Day 1 was higher in the ponesimod 20 mg arm (2.1%) than in the teriflunomide 14 mg arm (0.4%). However, the overall incidence of first dose AESI on Day 1 was low (2.1%) in ponesimod. None of these events were serious nor led to permanent discontinuation of study treatment. Discharge criteria at 4 hours post-dose were met for ca. 99% of subjects. […] ECG HR effect: nadir at 2 hours post-dose (siponimod—3-4 hours, fingolimod—around by 6 hours). Low incidence of low HR outliers (post-dose HR≤40 bpm), all 3 of them with a pre-treatment HR of <55 bpm, which is a known risk factor for post-dose bradycardia with SIP receptor modulators.
The mean heart rate reduction compared to pre-dose reached a maximum for ponesimod 20 mg at 2-hours post dose, −8.7 bpm compared to −1.7 bpm for teriflunomide 14 mg (FIG. 2).

[3] = tested on: adult subjects with relapsing MS; test: MRI-based scaled brain ventricular volume (lateral + 3rd ventricle / ICV); assay type: in vivo, human; settings: p<0.001 vs baseline, ponesimod n=428, teriflunomide n=427
From the text: Efficacy variable/timepoint: The endpoint was increase in ventricular volume up to the end of study (EOS). All available data up to EOS, regardless of treatment discontinuation was included (ITT approach).
Ventricular Volume (VV) data were obtained from MRI images from patients that participated in the OPTIMUM study. Data were obtained from those patients who had MRI imagines at baseline week 60 and week 108. One pre-requisite was to select only those patients who had all images completed.
Ventricular volume was estimated from MRI images collected at baseline (BL), week 60 and week 108 for 428 subjects treated with ponesimod and 427 with teriflunomide. Lesions were identified using T2-weighted and Proton Density (PD) MRIs. Ventricles were segmented using lesion-filled T1 images using with the longitudinal stream in FreeSurfer 7. For each subject, scaled ventricular volume (V) was computed as the sum of lateral and 3rd ventricle volumes divided by the intracranial volume (ICV) and expressed as a percentage. Average V (V) and average change in V (ΔV) from baseline at weeks 60 and 108 were compared across treatment arms. Ventricular volumes were correlated with Multiple Sclerosis Functional Composite (MSFC), Paced Auditory Serial Addition Test (PASAT), Average Timed 25 Foot Walk (T25FW), Average 9-Hole Peg Test (9-HPT), Single Digit Modality Test (SDMT), FSIQ-RMS and Expanded Disability Score (EDSS).

[4] = tested on: adult subjects with relapsing MS; test: Phase III study: premature treatment discontinuation and deaths; assay type: in vivo; settings: ponesimod 20 mg, teriflunomide 14 mg
Method: A total of 1468 subjects were screened. Of those, 1133 subjects were randomized (567 to ponesimod 20 mg and 566 to teriflunomide 14 mg) across 162 sites in 28 countries, and 1131 subjects received at least one dose of study drug. The disposition of subjects is summarized in Table 1 and a summary of reasons (primary reason) for treatment discontinuation are shown in Table 2. Overall treatment and study discontinuation were balanced across both treatment arms. A total of 6.5% and 2.5% of the subjects discontinued due to AEs or tolerability related reasons in ponesimod 20 mg and teriflunomide 14 mg, respectively, while 1.9% and 4.3% discontinued due to efficacy related reasons. There were 2 deaths reported during the study—both on teriflunomide 14 mg.

[5] = tested on: adult subjects with relapsing MS; test: Phase III study ponesimod 20 mg vs teriflunomide 14 mg: treatment-emergent adverse events (Safety Set)
Method: A prospective, multicenter, randomized, double-blind, active controlled, parallel-group, phase III, superiority study was conducted.
The treatment period consisted of an up-titration period (from Day 1 to 14) and a maintenance period (Day 15 until EOT).
To reduce the first-dose effect of ponesimod, an up-titration scheme was implemented from Day 1 to Day 14: • Days 1 and 2; 2 mg. • Days 3 and 4; 3 mg. • Days 5 and 6; 4 mg. • Day 7; 5 mg. • Day 8; 6 mg. • Day 9; 7 mg. • Day 10; 8 mg. • Day 11; 9 mg. • Days 12, 13, and 14; 10 mg. • Day 15 until EOT; 20 mg.
The Safety Set (SAF) included all randomized subjects who received at least one dose of study treatment. Subjects were analyzed based on actual treatment taken, not randomized treatment.

[6] = Day 1, ponesimod N=565, teriflunomide N=566, Safety Set
[7] = ponesimod 20 mg N=565, teriflunomide 14 mg N=566, Safety Set
[8] = ponesimod 20 mg, teriflunomide 14 mg
[9] = treatment-emergent, ponesimod 20 mg N=565, teriflunomide 14 mg N=566, Safety Set

CCCCCCCCc1ccc(CCC(N)(CO)CO)cc1 [fingolimod]
ECG HR effect: time of nadir post-dose [1]: ~6 h

CCc1cc(/C(C)=N/OCc2ccc(C3CCCCC3)c(C(F)(F)F)c2)ccc1CN1CC(C(=O)O)C1 [siponimod]
ECG HR effect: time of nadir post-dose [1]: 3 to 4 h

C/C(O)=C(\C#N)C(=O)Nc1ccc(C(F)(F)F)cc1 [teriflunomide, reference compound]
Mean heart rate reduction compared to pre-dose (maximum) ([2]; Day 1, 2 hours post dose, 12-lead ECG): −1.7 bpm | Subjects with asymptomatic post-dose HR≤40 bpm ([2]; Day 1, all had pre-treatment HR <55 bpm): none | Average change in scaled ventricular volume from baseline (Δ60V), percentage of ICV ([3]; week 60): 0.065% | Average change in scaled ventricular volume from baseline (Δ108V), percentage of ICV ([3]; week 108): 0.124% | Subjects discontinued due to AEs or tolerability related reasons [4]: 2.5% | Incidence of treatment-emergent heart rate and rhythm (including hypotension) AESIs on Day 1 ([5]; Day 1, ponesimod 20 mg arm, teriflunomide 14 mg arm): 0.4% | AESI effect on heart rate and rhythm (including hypotension) on Day 1: Subjects with at least one AE [5, 6]: 2(0.4) n (%) | AESI heart rate and rhythm on Day 1, PT: Atrioventricular block first degree [5, 6]: 0 n (%) | AESI heart rate and rhythm on Day 1, PT: Bradycardia [5, 6]: 0 n (%) | AESI heart rate and rhythm on Day 1, PT: Bundle branch block left [5, 6]: 0 n (%) | AESI heart rate and rhythm on Day 1, PT: Bundle branch block right [5, 6]: 0 n (%) | AESI heart rate and rhythm on Day 1, PT: Defect conduction intraventricular [5, 6]: 0 n (%) | AESI heart rate and rhythm on Day 1, PT: Electrocardiogram QT prolonged [5, 6]: 1(0.2) n (%) | AESI heart rate and rhythm on Day 1, PT: Presyncope [5, 6]: 1(0.2) n (%) | AESI heart rate and rhythm on Day 1, PT: Sinus arrhythmia [5, 6]: 0 n (%) | AESI heart rate and rhythm on Day 1, PT: Sinus bradycardia [5, 6]: 0 n (%) | Treatment-emergent AESI: Infection ([5]; only if serious or severe, ponesimod 20 mg N=565, teriflunomide 14 mg N=566, Safety Set): 5(0.9) n (%) | TEAEs leading to premature discontinuation of study drug: Subjects with at least one AE [5, 7]: 34(6.0) n (%) | TEAEs leading to premature discontinuation, SOC: Blood and lymphatic system disorders [5, 7]: 2(0.4) n (%) | TEAEs leading to premature discontinuation, SOC: Cardiac disorders [5, 7]: 2(0.4) n (%) | TEAEs leading to premature discontinuation, SOC: Eye disorders [5, 7]: 0 n (%) | TEAEs leading to premature discontinuation, SOC: Gastrointestinal disorders [5, 7]: 4(0.7) n (%) | TEAEs leading to premature discontinuation, SOC: General disorders and administration site conditions [5, 7]: 2(0.4) n (%) | TEAEs leading to premature discontinuation, SOC: Hepatobiliary disorders [5, 7]: 2(0.4) n (%) | TEAEs leading to premature discontinuation, SOC: Investigations [5, 7]: 10(1.8) n (%) | TEAEs leading to premature discontinuation, SOC: Musculoskeletal and connective tissue disorders [5, 7]: 1(0.2) n (%) | TEAEs leading to premature discontinuation, SOC: Neoplasms benign, malignant and unspecified (incl cysts and polyps) [5, 7]: 1(0.2) n (%) | TEAEs leading to premature discontinuation, SOC: Nervous system disorders [5, 7]: 4(0.7) n (%) | TEAEs leading to premature discontinuation, SOC: Pregnancy, puerperium and perinatal conditions [5, 7]: 3(0.5) n (%) | TEAEs leading to premature discontinuation, SOC: Psychiatric disorders [5, 7]: 1(0.2) n (%) | TEAEs leading to premature discontinuation, SOC: Reproductive system and breast disorders [5, 7]: 1(0.2) n (%) | TEAEs leading to premature discontinuation, SOC: Respiratory, thoracic and mediastinal disorders [5, 7]: 0 n (%) | TEAEs leading to premature discontinuation, SOC: Skin and subcutaneous tissue disorders [5, 7]: 2(0.4) n (%) | TEAEs leading to premature discontinuation, SOC: Social circumstances [5, 7]: 1(0.2) n (%) | TEAEs leading to premature discontinuation, SOC: Surgical and medical procedures [5, 7]: 1(0.2) n (%) | TEAEs leading to premature discontinuation, SOC: Vascular disorders [5, 7]: 0 n (%) | Treatment-emergent AESI: Effect on heart rate and rhythm (including hypotension) [5, 7]: 24(4.2) n (%) | Treatment-emergent AESI: Hepatobiliary disorders/Liver enzyme abnormality [5, 7]: 82(14.5) n (%) | Treatment-emergent AESI: Herpetic infection [5, 7]: 27(4.8) n (%) | Treatment-emergent AESI: Hypertension [5, 7]: 51(9.0) n (%) | Treatment-emergent AESI: Macular edema [5, 7]: 1(0.2) n (%) | Treatment-emergent AESI: Non-skin malignancy [5, 7]: 1(0.2) n (%) | Treatment-emergent AESI: Pulmonary events [5, 7]: 15(2.7) n (%) | Treatment-emergent AESI: Seizure [5, 7]: 1(0.2) n (%) | Treatment-emergent AESI: Skin malignancy [5, 7]: 1(0.2) n (%) | AESI category hepatobiliary disorders/liver enzyme abnormality [5, 8]: 14.5% | AESI category hypertension [5, 8]: 9.0% | AESI category pulmonary events [5, 8]: 2.7% | Proportion of subjects who experienced at least one SAE [5, 8]: 8.1% | Proportion of subjects who experienced at least one TEAE [5, 8]: 88.2% | TEAE: ALT increased [5, 8]: 9.4% | TEAE: headache [5, 8]: 12.7% | TEAE: nasopharyngitis [5, 8]: 16.8% | TEAE: upper respiratory tract infection [5, 8]: 10.4% | TEAEs leading to premature treatment discontinuation [5, 8]: 6.0% | Subjects with at least one AE [5, 9]: 499(88.2) n (%) | Subjects with at least one AE leading to study drug discontinuation [5, 9]: 34(6.0) n (%) | Subjects with at least one Drug-Related AE [5, 9]: 238(42.0) n (%) | Subjects with at least one Fatal AE [5, 9]: 2(0.4) n (%) | Subjects with at least one Serious AE [5, 9]: 46(8.1) n (%) | Subjects with at least one Severe AE [5, 9]: 26(4.6) n (%)
